Results: US20250320206A1, “STAT6 DEGRADERS” (Gilead Sciences, Inc., priority 2024, published 2025)

The molecules below were run against T1, STAT6 (Homo sapiens, UniProt P42226) (assay: Stat6 Degrader Assay (HiBiT based, HeLa LgBiT clone 4.14)). Settings: HeLa LgBiT clone 4.14 HiBiT-STAT6, 4-24 h incubation; read-out: STAT6 degradation Emax.
T1 construct: These cells express endogenous STAT6; host or cells: HeLa LgBiT clone 4.14
T1 sequence (P42226 1-847): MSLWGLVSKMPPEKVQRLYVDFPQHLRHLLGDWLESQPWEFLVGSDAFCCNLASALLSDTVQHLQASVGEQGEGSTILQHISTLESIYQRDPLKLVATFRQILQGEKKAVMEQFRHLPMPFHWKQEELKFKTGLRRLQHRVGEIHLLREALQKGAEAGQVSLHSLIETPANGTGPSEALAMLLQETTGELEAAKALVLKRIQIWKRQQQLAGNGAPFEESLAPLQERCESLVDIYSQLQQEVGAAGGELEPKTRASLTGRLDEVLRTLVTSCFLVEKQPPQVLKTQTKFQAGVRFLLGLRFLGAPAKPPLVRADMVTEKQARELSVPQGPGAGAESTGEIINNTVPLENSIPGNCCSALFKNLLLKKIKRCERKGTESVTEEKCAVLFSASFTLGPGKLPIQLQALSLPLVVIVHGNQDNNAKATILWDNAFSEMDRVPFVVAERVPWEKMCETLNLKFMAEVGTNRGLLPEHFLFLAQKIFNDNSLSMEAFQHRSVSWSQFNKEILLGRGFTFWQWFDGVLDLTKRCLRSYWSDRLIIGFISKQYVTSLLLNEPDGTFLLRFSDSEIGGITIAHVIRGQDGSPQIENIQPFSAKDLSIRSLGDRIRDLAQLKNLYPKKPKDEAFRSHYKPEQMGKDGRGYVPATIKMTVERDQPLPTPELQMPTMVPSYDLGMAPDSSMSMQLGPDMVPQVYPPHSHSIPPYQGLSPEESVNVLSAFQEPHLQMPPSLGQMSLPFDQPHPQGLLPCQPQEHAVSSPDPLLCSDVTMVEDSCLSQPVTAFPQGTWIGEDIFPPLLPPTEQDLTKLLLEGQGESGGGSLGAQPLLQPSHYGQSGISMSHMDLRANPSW
Type: cell-based
Description: This was a HiBit based assay. A HeLa cell line stably transfected with a small protein, LgBit (Large Bit) was obtained from Promega. These cells express endogenous STAT6. A small 11 amino acid gene sequence (HiBiT) was inserted in the STAT6 gene using CRISPR technology. Once STAT6 protein is expressed in the cells, the HiBiT sequence will bind the LgBit in the cells resulting in a functional NanoBiT protein, giving a luminescent tag to STAT6, see FIG. 2.
Single cell clones were prepared and the clone 4.14 was selected for the assay based on that clone showing high luminescence, high STAT6 phosphorylation upon stimulation with IL-4, and inhibition of luminescence when cells were treated with STAT6 siRNA.
HeLa LgBiT clone 4.14 cells were suspended in DMEM with 10% FCS, 1% Pen/Strep, Na-pyrovate and Hygromycin B, at a concentration of 1.25*105 cells pr mL. 5000 cells were added pr well of a 384 well plate and 20 nL of compound was added by Echo® liquid handler. NN6394A (terfenadine, a toxic compound) was added to control wells at 50 μM concentration to establish the assay window. In these wells the cells are dead which equals 100% degradation of STAT6.
After 4-24 h of incubation at 37° C. under 5% CO2/95% air, 5 μL substrate (Nano-GLO®) was added to the wells and the plates were centrifuged and incubated for 0.5 h.
The luminescence in the wells as a measure of non-degraded STAT6 was measured in a plate reader (BMG Pherastar FSX).
The dose-response curves for Examples 3u208, 3u246, 3u118, 3u119, 3u120, and 3u74 are shown in FIG. 1 (where percent degradation is plotted vs. test compound concentration in M on a log-scale).

| SMILES | Emax |
| --- | --- |
| CNc1cc(=O)n(-c2ccnc3c2cc([C@H](C)N2CC=C(c4c(C)cc(C(=O)N5CCC(CN6CCN(c7ccc8c(c7)n(C7CCC(=O)NC7=O)c(=O)n8C)CC6)CC5)cc4F)CC2)n3C)cc1F (stereo partly drawn) [Example 3u272, 3-(6-(4-((1-(3-fluoro-4-(1-((S)-1-(4-(5-fluoro-4-(methylamino)-2-oxopyridin-1 (2H)-yl)-1-methyl-1H-pyrrolo[2,3-b]pyridin-2-yl)ethyl)-1,2,3,6-tetrahydropyridin-4-yl)-5-methylbenzoyl)piperidin-4-yl)methyl)piperazin-1-yl)-3-methyl-2-oxo-2,3-dihydro-1H-benzo[d]imidazol-1-yl)piperidine-2,6-dione] | < 20% |

Same assay, conditions: HeLa LgBiT clone 4.14 HiBiT-STAT6, 4-24 h incubation; values given for compounds with >80% Emax; geometric mean; read-out: STAT6 degradation DC50

| SMILES | DC50 |
| --- | --- |
| CNc1ccn(-c2ccnc3c2cc([C@H](C)N2CC=C(c4c(C)cc(C(=O)N5CCC(CN6CCN(Cc7cc8c(cc7F)n([C@@H]7CCC(=O)NC7=O)c(=O)n8C7CC7)CC6)CC5)cc4F)CC2)n3C)c(=O)c1 (single isomer, unassigned) [Example 3u105] | 1.4 nM |
| CNc1ccn(-c2ccnc3c2cc([C@H](C)N2CC=C(c4c(C)cc(C(=O)N5CCn6nc(CC7CCN(c8ccc9c(c8)n(C8CC8)c(=O)n9C8CCC(=O)NC8=O)CC7)cc6C5)cc4F)CC2)n3C)c(=O)c1 (stereo partly drawn) [Example 3u259, 3-(3-cyclopropyl-5-(4-((5-(3-fluoro-5-methyl-4-(1-((S)-1-(1-methyl-4-(4-(methylamino)-2-oxopyridin-1 (2H)-yl)-1H-pyrrolo[2,3-b]pyridin-2-yl)ethyl)-1,2,3,6-tetrahydropyridin-4-yl)benzoyl)-4,5,6,7-tetrahydropyrazolo[1,5-a]pyrazin-2-yl)methyl)piperidin-1-yl)-2-oxo-2,3-dihydro-1H-benzo[d]imidazol-1-yl)piperidine-2,6-dione] | 0.5 nM |
| CNc1cc(=O)n(-c2ccnc3c2cc([C@H](C)N2CC=C(c4c(C)cc(C(=O)N5CCC(CN6CCN(c7ccc8c(c7)n(C7CC7)c(=O)n8C7CCC(=O)NC7=O)CC6)CC5)cc4F)CC2)n3C)cc1F (stereo partly drawn) [Example 3u276, 3-(3-cyclopropyl-5-(4-((1-(3-fluoro-4-(1-((S)-1-(4-(5-fluoro-4-(methylamino)-2-oxopyridin-1 (2H)-yl)-1-methyl-1H-pyrrolo[2,3-b]pyridin-2-yl)ethyl)-1,2,3,6-tetrahydropyridin-4-yl)-5-methyl-benzoyl)piperidin-4-yl)methyl)piperazin-1-yl)-2-oxo-2,3-dihydro-1H-benzo[d]imidazol-1-yl)piperidine-2,6-dione] | 4.3 nM |
| CNc1cc(=O)n(-c2ccnc3c2cc([C@H](C)N2CC=C(c4c(C)cc(C(=O)N(C)c5ccc(C6CCN(Cc7ccc8c(c7)C(C)(C)C(=O)N8[C@H]7CCC(=O)NC7=O)CC6)cc5)cc4F)CC2)n3C)cc1F (single isomer, unassigned) [Example 3u234] | 0.1 nM |

Next, values leading:

| DC50 | SMILES |
| --- | --- |
| 2.1 nM | CNc1ccn(-c2ccnc3c2cc([C@H](C)N2CC=C(c4c(C)cc(C(=O)N5CCC(CN6CCN(Cc7cc8c(cc7F)n([C@@H]7CCC(=O)NC7=O)c(=O)n8C7CC7)C[C@@H]6C)CC5)cc4F)CC2)n3C)c(=O)c1 (single isomer, unassigned) [Example 3u168] |
| 1.2 nM | Cc1cc(C(=O)N2CCC(CN3CCN(Cc4ccc5c(c4)n(C)c(=O)n5[C@H]4CCC(=O)NC4=O)C[C@@H]3C)CC2)cc(F)c1C1=CCN(Cc2cc3c(-n4ccc5c(c4=O)CCN5)ccnc3n2C)CC1 (single isomer, unassigned) [Example 3u24] |
| 24.1 nM | CNc1ccn(-c2ccnc3c2cc(CN2CCC(c4c(C)cc(C(=O)N5CCC(CN6CCN(Cc7ccc8c(c7)n(C)c(=O)n8C7CCC(=O)NC7=O)CC6)CC5)cc4F)CC2)n3C)c(=O)c1 (centres unmarked) [Example 3u158, 3-(5-((4-((1-(3-fluoro-5-methyl-4-(1-((1-methyl-4-(4-(methylamino)-2-oxopyridin-1 (2H)-yl)-1H-pyrrolo[2,3-b]pyridin-2-yl)methyl)piperidin-4-yl)benzoyl)piperidin-4-yl)methyl)-piperazin-1-yl)methyl)-3-methyl-2-oxo-2,3-dihydro-1H-benzo[d]imidazol-1-yl)piperidine-2,6-dione] |
